Patent publication US12404241B2 (Celgene Corporation, priority 2018, dated 2025)
Structures can show the parent of a compound that is named as a salt.

Molecular target: T1, AR (Homo sapiens, UniProt P10275)
T1 construct: endogenous in cells; host or cells: VCaP cells
T1 sequence (P10275 1-920): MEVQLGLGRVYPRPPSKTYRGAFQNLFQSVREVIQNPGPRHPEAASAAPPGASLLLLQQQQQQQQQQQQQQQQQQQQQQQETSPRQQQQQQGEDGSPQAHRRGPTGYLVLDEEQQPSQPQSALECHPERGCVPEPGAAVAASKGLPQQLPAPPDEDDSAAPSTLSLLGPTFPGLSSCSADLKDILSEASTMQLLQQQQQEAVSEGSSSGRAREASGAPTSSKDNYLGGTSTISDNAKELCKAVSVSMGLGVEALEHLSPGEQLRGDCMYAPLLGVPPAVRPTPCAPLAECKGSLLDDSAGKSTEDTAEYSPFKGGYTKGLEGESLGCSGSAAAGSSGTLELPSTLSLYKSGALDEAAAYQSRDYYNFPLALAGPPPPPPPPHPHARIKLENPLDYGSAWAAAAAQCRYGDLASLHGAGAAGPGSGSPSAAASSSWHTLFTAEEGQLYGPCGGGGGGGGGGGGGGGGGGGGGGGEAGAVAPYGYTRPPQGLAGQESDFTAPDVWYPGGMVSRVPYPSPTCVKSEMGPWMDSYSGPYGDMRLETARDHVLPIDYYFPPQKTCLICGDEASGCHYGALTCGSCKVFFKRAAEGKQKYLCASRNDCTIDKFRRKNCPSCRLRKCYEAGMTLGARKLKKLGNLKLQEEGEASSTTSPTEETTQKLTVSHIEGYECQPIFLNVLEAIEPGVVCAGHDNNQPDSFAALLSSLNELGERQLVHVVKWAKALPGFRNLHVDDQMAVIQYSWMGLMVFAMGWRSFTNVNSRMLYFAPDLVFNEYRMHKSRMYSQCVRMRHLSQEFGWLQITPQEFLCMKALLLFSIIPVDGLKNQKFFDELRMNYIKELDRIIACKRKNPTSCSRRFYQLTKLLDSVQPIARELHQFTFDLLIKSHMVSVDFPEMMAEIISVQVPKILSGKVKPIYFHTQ
Test: VCAP AR Degradation Assay
Format: cell-based
Conditions: for Y (AR degradation efficiency, % of DMSO control): class symbols *; for DC50: class symbols A-C, read-out: DC50
Method in brief: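 24 h, 37 °C, VCaP (DMEM/8% FBS), 10-pt 1:3 dilutions from 5 μM final top, 0.1% DMSO ctrl. Lysis on ice/4 °C 1 h; total AR by sandwich ELISA, normalized to DMSO. 4PL fit → DC50, EC50, Y (min AR level).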

SMILES | Y (AR degradation efficiency, % of DMSO control) | DC50
CCc1cc(N2C(=S)N(c3ccc(C#N)c(C(F)(F)F)c3)C(=O)C2(C)C)ccc1CCCN1CCN(CC(=O)Nc2cc(Cl)cc(NC3CCC(=O)NC3=O)c2)CC1 (centres unmarked) [Example 89, N-(3-chloro-5-(2,6-dioxopiperidin-3-ylamino)phenyl)-2-(4-(3-(4-(3-(4-cyano-3-(trifluoromethyl)phenyl)-5,5-dimethyl-4-oxo-2-thioxoimidazolidin-1-yl)-2-ethylphenyl)propyl)piperazin-1-yl)acetamide] | * (0<Y<=25%) | < 100 nM
CC1(C)C(=O)N(c2ccc(C#N)c(C(F)(F)F)c2)C(=S)N1c1ccc(OCCN2CC3CCC(C2)N3CC(=O)Nc2cccc(NC3CCC(=O)NC3=O)c2)c(C2CC2)c1 (centres unmarked) [Example 238, 2-(3-(2-(4-(3-(4-cyano-3-(trifluoromethyl)phenyl)-5,5-dimethyl-4-oxo-2-thioxoimidazolidin-1-yl)-2-cyclopropylphenoxy)ethyl)-3,8-diazabicyclo[3.2.1]octan-8-yl)-N-(3-(2,6-dioxopiperidin-3-ylamino)phenyl)acetamide] | * (0<Y<=25%) | 500 to 1000 nM
CCc1cc(N2C(=S)N(c3ccc(C#N)c(C(F)(F)F)c3)C(=O)C2(C)C)ccc1OCCN1CCN(CC(=O)Nc2cc(Cl)cc(NC3CCC(=O)NC3=O)c2)[C@H](C)C1 (stereo partly drawn) [Example 87, N-(3-chloro-5-(2,6-dioxopiperidin-3-ylamino)phenyl)-2-((R)-4-(2-(4-(3-(4-cyano-3-(trifluoromethyl)phenyl)-5,5-dimethyl-4-oxo-2-thioxoimidazolidin-1-yl)-2-ethylphenoxy)ethyl)-2-methylpiperazin-1-yl)acetamide] | * (0<Y<=25%) | < 100 nM
CC(C)c1cc(N2C(=S)N(c3ccc(C#N)c(C(F)(F)F)c3)C(=O)C2(C)C)ccc1OCCN1CCN(CC(=O)Nc2cccc(NC3CCC(=O)NC3=O)c2)[C@H](C)C1 (stereo partly drawn) [Example 162, 2-((R)-4-(2-(4-(3-(4-cyano-3-(trifluoromethyl)phenyl)-5,5-dimethyl-4-oxo-2-thioxoimidazolidin-1-yl)-2-isopropylphenoxy)ethyl)-2-methylpiperazin-1-yl)-N-(3-(2,6-dioxopiperidin-3-ylamino)phenyl)acetamide] | ** (25%<Y<=35%) | 100 to 500 nM
CCc1cc(N2C(=S)N(c3cnc(C#N)c(C(F)(F)F)c3)C(=O)C23CCC3)ccc1OCCN1CCN(CC(=O)Nc2cc(F)cc(NC3CCC(=O)NC3=O)c2)[C@H](C)C1 (stereo partly drawn) [Example 107, 2-((R)-4-(2-(4-(7-(6-cyano-5-(trifluoromethyl)pyridin-3-yl)-8-oxo-6-thioxo-5,7-diazaspiro[3.4]octan-5-yl)-2-ethylphenoxy)ethyl)-2-methylpiperazin-1-yl)-N-(3-(2,6-dioxopiperidin-3-ylamino)-5-fluorophenyl)acetamide] | * (0<Y<=25%) | < 100 nM
C[C@@H]1CN(CCOc2ccc(N3C(=S)N(c4cnc(C#N)c(C(F)(F)F)c4)C(=O)C34CCC4)cc2C(C)(F)F)C[C@H](C)N1CC(=O)Nc1cccc(NC2CCC(=O)NC2=O)c1 (stereo partly drawn) [Example 265, 2-((2S,6R)-4-(2-(4-(7-(6-cyano-5-(trifluoromethyl)pyridin-3-yl)-8-oxo-6-thioxo-5,7-diazaspiro[3.4]octan-5-yl)-2-(1,1-difluoroethyl)phenoxy)ethyl)-2,6-dimethylpiperazin-1-yl)-N-(3-(2,6-dioxopiperidin-3-ylamino)phenyl)acetamide] | * (0<Y<=25%) | < 100 nM
CCc1cc(N2C(=S)N(c3ccc(C#N)c(C(F)(F)F)c3)C(=O)C23CCCCC3)ccc1OCCN1C[C@@H](C)N(CC(=O)Nc2cccc(NC3CCC(=O)NC3=O)c2)[C@@H](C)C1 (stereo partly drawn) [Example 264, 2-((2S,6R)-4-(2-(4-(3-(4-cyano-3-(trifluoromethyl)phenyl)-4-oxo-2-thioxo-1,3-diazaspiro[4.5]decan-1-yl)-2-ethylphenoxy)ethyl)-2,6-dimethylpiperazin-1-yl)-N-(3-(2,6-dioxopiperidin-3-ylamino)phenyl)acetamide] | * (0<Y<=25%) | < 100 nM
CCC(C)c1cc(N2C(=S)N(c3ccc(C#N)c(C(F)(F)F)c3)C(=O)C2(C)C)ccc1OCCN1CCN(CC(=O)Nc2cccc(NC3CCC(=O)NC3=O)c2)CC1 (centres unmarked) [Example 29, hydrochloride] | ** (25%<Y<=35%) | 500 to 1000 nM
CCc1cc(N2C(=S)N(c3ccc(C#N)c(C(F)(F)F)c3)C(=O)C2(C)C)ccc1OCCN1C[C@H](C)N(CC(=O)Nc2cc(Cl)cc(NC3CCC(=O)NC3=O)c2)[C@@H](C)C1 (stereo partly drawn) [Example 147, N-(3-chloro-5-(2,6-dioxopiperidin-3-ylamino)phenyl)-2-((2S,6S)-4-(2-(4-(3-(4-cyano-3-(trifluoromethyl)phenyl)-5,5-dimethyl-4-oxo-2-thioxoimidazolidin-1-yl)-2-ethylphenoxy)ethyl)-2,6-dimethylpiperazin-1-yl)acetamide] | * (0<Y<=25%) | < 100 nM
CCc1cc(N2C(=S)N(c3ccc(C#N)c(C(F)(F)F)c3)C(=O)C2(C)C)ccc1OCCN1CCN(CC(=O)Nc2cc(Cl)cc(NC3CCC(=O)NC3=O)c2)CC1 (centres unmarked) [Example 40, hydrochloride] | * (0<Y<=25%) | < 100 nM
CCc1cc(N2C(=S)N(c3ccc(C#N)c(Cl)c3)C(=O)C2(C)C)ccc1OCCN1CCN(CC(=O)Nc2cccc(NC3CCC(=O)NC3=O)c2)[C@H](C)C1 (stereo partly drawn) [Example 168, 2-((R)-4-(2-(4-(3-(3-chloro-4-cyanophenyl)-5,5-dimethyl-4-oxo-2-thioxoimidazolidin-1-yl)-2-ethylphenoxy)ethyl)-2-methylpiperazin-1-yl)-N-(3-(2,6-dioxopiperidin-3-ylamino)phenyl)acetamide] | * (0<Y<=25%) | < 100 nM
CCc1cc(N2C(=S)N(c3cnc(C#N)c(C(F)(F)F)c3)C(=O)C2(C)C)ccc1OCCN1C[C@H]2CC[C@@H]1CN2CC(=O)Nc1cc(Cl)cc(NC2CCC(=O)NC2=O)c1 (stereo partly drawn) [Example 184, N-(3-chloro-5-(2,6-dioxopiperidin-3-ylamino)phenyl)-2-((1R,4R)-5-(2-(4-(3-(6-cyano-5-(trifluoromethyl)pyridin-3-yl)-5,5-dimethyl-4-oxo-2-thioxoimidazolidin-1-yl)-2-ethylphenoxy)ethyl)-2,5-diazabicyclo[2.2.2]octan-2-yl)acetamide] | ** (25%<Y<=35%) | 100 to 500 nM
CC1(C)C(=O)N(c2cnc(C#N)c(C(F)(F)F)c2)C(=S)N1c1ccc(OCCN2CCN(CC(=O)Nc3cc(Cl)cc(NC4CCC(=O)NC4=O)c3)CC2)c(Cl)c1 (centres unmarked) [Example 14, hydrochloride] | * (0<Y<=25%) | < 100 nM
C[C@@H]1CN(CC(=O)Nc2cccc(NC3CCC(=O)NC3=O)c2)[C@H](C)CN1CCOc1ccc(N2C(=S)N(c3cnc(C#N)c(C(F)(F)F)c3)C(=O)C2(C)C)cc1C1CC1 (stereo partly drawn) [Example 234, 2-((2R,5R)-4-(2-(4-(3-(6-cyano-5-(trifluoromethyl)pyridin-3-yl)-5,5-dimethyl-4-oxo-2-thioxoimidazolidin-1-yl)-2-cyclopropylphenoxy)ethyl)-2,5-dimethylpiperazin-1-yl)-N-(3-(2,6-dioxopiperidin-3-ylamino)phenyl)acetamide] | * (0<Y<=25%) | < 100 nM
CC[C@H]1CN(CCOc2ccc(N3C(=S)N(c4ccc(C#N)c(C(F)(F)F)c4)C(=O)C3(C)C)cc2C2CC2)CCN1CC(=O)Nc1cccc(NC2CCC(=O)NC2=O)c1 (stereo partly drawn) [Example 263, 2-((S)-4-(2-(4-(3-(4-cyano-3-(trifluoromethyl)phenyl)-5,5-dimethyl-4-oxo-2-thioxoimidazolidin-1-yl)-2-cyclopropylphenoxy)ethyl)-2-ethylpiperazin-1-yl)-N-(3-(2,6-dioxopiperidin-3-ylamino)phenyl)acetamide] | * (0<Y<=25%) | < 100 nM
N#Cc1ccc(N2C(=O)C3(CCC3)N(c3ccc(OCCN4CCN(CC(=O)Nc5cccc(NC6CCC(=O)NC6=O)c5)CC4)c(Cl)c3)C2=S)cc1C(F)(F)F (centres unmarked) [Example 7, hydrochloride] | * (0<Y<=25%) | < 100 nM
